Results on 1 compound are retold here after US12133920B2, “Stabilization of beta-hydroxyisovaleric acid formulations in soft gel capsules” (TSI Group Ltd., priority 2016, dated 2024).

This data set in a line: Accelerated stability test: HMB-FA contents per capsule. It is filed as physicochemical. As to conditions: for HMB FA contents: 40±2° C., 75% RH±5% RH, sealed HDPE bottles, HMB-FA 75 wt %, betaine anhydrous 18 wt %, purified water 7 wt %. The method, then: Accelerated Stability Test: To assess how the quality and purity of the instantly disclosed composition would vary with time under the influence of environmental factors of temperature and humidity, accelerated stability tests were performed. Tests were carried out according to guidelines provided in Stability Testing of New Drug Substances and Products issued by ICH and Stability testing guideline of dietary supplements by NSF. NSF Stability Testing Working Group, Stability testing guideline of dietary supplements, January 2011. […] The gel capsule composition was HMB-FA 75 wt %; betaine anhydrous 18 wt % and purified water 7 wt %. Samples were repacked in HDPE bottles (size: 1 80 ct, 300 rnl) then sealed with aluminum foil. Samples were exposed to high temperature and high humidity (40±2° C.; 75% RH±5% RH) and evaluated at 1, 2, and 3 months.

Each structure is given as a SMILES string.

For `CC(C)(O)CC(=O)O` [HMB FA, Beta-hydroxyisovaleric acid], the “HMB FA contents” value was 519 mg/capsule (0 months), 494.4 mg/capsule (1 month), 484.8 mg/capsule (2 months) and 491.8 mg/capsule (3 months). In addition, the “stability of HMB FA (overall)” value (high heat high humidity environments, periods exceeding three months) is “substantially stable”.
